Data on twelve molecules can be found in patent US8859580B2 (Boehringer Ingelheim International GmbH, priority 2007, dated 2014).

This assay addresses T1, 11β-HSD1 (Homo sapiens, UniProt P28845).
T1 construct: detecting cortisol generated from cortisterone by human liver microsomes; from tissue; host or cells: human liver microsomes
The assay is described as follows: In vitro inhibition of 11β-HSD1, HTRF detection of cortisol generated from cortisone by human liver microsomes. The format is biochemical. Conditions: 11β-HSD IC50 (nM), 1 hour at 37° C., pH 6.0, NADPH 200 μM, cortisone 80 nM, inhibition relative to carbenoxolone signal. An outline of the steps:
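Inhibition expressed against the carbenoxolone signal and fitted to IC50 curves. Readout: HTRF competition between microsomal cortisol and XL665-labelled cortisol for Eu-cryptate anti-cortisol antibody (typically 2 h), with emission ratio 665/615 calibrated to cortisol concentration.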
A general note: TR-FRET usually uses a lanthanide donor and a delayed reading to cut background.

T1 sequence (P28845 whole entry): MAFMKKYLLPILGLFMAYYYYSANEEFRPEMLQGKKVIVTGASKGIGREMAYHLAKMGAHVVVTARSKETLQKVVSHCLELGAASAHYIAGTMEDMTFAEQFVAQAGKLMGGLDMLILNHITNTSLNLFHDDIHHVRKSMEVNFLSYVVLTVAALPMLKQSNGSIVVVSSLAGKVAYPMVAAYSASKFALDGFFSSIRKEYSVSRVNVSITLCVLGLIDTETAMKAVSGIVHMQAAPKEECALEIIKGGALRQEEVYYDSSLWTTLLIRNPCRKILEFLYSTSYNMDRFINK

`COc1cc2c(cc1O)C1(C)CCN(C(=O)c3ccc4nc[nH]c4c3)C(C2)C1(C)C` (stereo not drawn) [Example 73, (3H-Benzoimidazol-5-yl)-(8-hydroxy-9-methoxy-6,11,11-trimethyl-1,2,5,6-tetrahydro-4H-2,6-methano-benzo[d]azocin-3-yl)-methanone] gave an IC50 of 88 nM.
The figure for `COc1ccc2c(c1)C[C@H]1N(C(=O)c3ccc4nc[nH]c4c3)CC[C@]2(C)C1(C)C` [Example 74, (3H-Benzoimidazol-5-yl)-[(2R,6S)-9-methoxy-6,11,11-trimethyl-1,2,5,6-tetrahydro-4H-2,6-methano-benzo[d]azocin-3-yl]-methanone] is 69 nM; for `CC12CCN(C(=O)c3ccc4nc[nH]c4c3)C(Cc3ccc(Cl)cc31)C2(C)C` (stereo not drawn) [Example 75, (3H-Benzoimidazol-5-yl)-(8-chloro-6,11,11-trimethyl-1,2,5,6-tetrahydro-4H-2,6-methano-benzo[d]azocin-3-yl)-methanone] it is 395 nM; for `COc1cccc2c1C[C@H]1N(C(=O)c3ccc4nc[nH]c4c3)CC[C@]2(C)C1(C)C` [Example 76, (3H-Benzoimidazol-5-yl)-[(2R,6S)-10-methoxy-6,11,11-trimethyl-1,2,5,6-tetrahydro-4H-2,6-methano-benzo[d]azocin-3-yl]-methanone] it is 166 nM.
The molecule `CC12CCN(C(=O)c3ccc4nc[nH]c4c3)C(Cc3cccc(O)c31)C2(C)C` (stereo not drawn) [Example 78, (3H-Benzoimidazol-5-yl)-(7-hydroxy-6,11,11-trimethyl-1,2,5,6-tetrahydro-4H-2,6-methano-benzo[d]azocin-3-yl)-methanone] had an IC50 of 67 nM. This IC50 lies about 2.5-fold lower than the previous one.
The figure for `CC1(C)[C@@H]2Cc3ccc(O)cc3[C@@]1(C)CCN2C(=O)c1ccc2nc[nH]c2c1` [Example 79, (3H-Benzoimidazol-5-yl)-[(2S,6R)-8-hydroxy-6,11,11-trimethyl-1,2,5,6-tetrahydro-4H-2,6-methano-benzo[d]azocin-3-yl]-methanone] is 1370 nM; for `CC1(C)[C@H]2Cc3ccc(O)cc3[C@]1(C)CCN2C(=O)c1ccc2nc[nH]c2c1` [Example 80, (3H-Benzoimidazol-5-yl)-[(2R,6S)-8-hydroxy-6,11,11-trimethyl-1,2,5,6-tetrahydro-4H-2,6-methano-benzo[d]azocin-3-yl]-methanone] it is 40 nM; for `Cn1cnc2ccc(C(=O)N3CC[C@@]4(C)c5cccc(O)c5C[C@@H]3C4(C)C)cc21` [Example 81, [(2R,6S)-10-Hydroxy-6,11,11-trimethyl-1,2,5,6-tetrahydro-4H-2,6-methano-benzo[d]azocin-3-yl]-(3-methyl-3H-benzoimidazol-5-yl)-methanone] it is 463 nM.
The same measure for `C[C@@H]1[C@H]2Cc3ccc(C#N)cc3[C@]1(C)CCN2C(=O)c1ccc2nc[nH]c2c1` [Example 84, (2R,6R,11S)-3-(3H-Benzoimidazole-5-carbonyl)-6,11-dimethyl-1,2,3,4,5,6-hexahydro-2,6-methano-benzo[d]azocine-8-carbonitrile]: 139 nM; for `CCCC12CCN(C(=O)c3ccc4nc[nH]c4c3)C(Cc3ccc(O)cc31)C2` (stereo not drawn) [Example 88, (3H-Benzoimidazol-5-yl)-(8-hydroxy-6-propyl-1,2,5,6-tetrahydro-4H-2,6-methano-benzo[d]azocin-3-yl)-methanone]: 171 nM.
`CCC12CCN(C(=O)c3ccc4nc[nH]c4c3)C(Cc3ccc(O)cc31)C2(C)C` (stereo not drawn) [Example 89, (3H-Benzoimidazol-5-yl)-(6-ethyl-8-hydroxy-11,11-dimethyl-1,2,5,6-tetrahydro-4H-2,6-methano-benzo[d]azocin-3-yl)-methanone] registered an IC50 of 62 nM.
Molecule `CCC12CCN(C(=O)c3ccc4nc[nH]c4c3)C(Cc3ccc(O)cc31)C2` (stereo not drawn) [Example 90, (3H-Benzoimidazol-5-yl)-(6-ethyl-8-hydroxy-1,2,5,6-tetrahydro-4H-2,6-methano-benzo[d]azocin-3-yl)-methanone] came in with an IC50 of 468 nM.

One may read the IC50 as the concentration that gives 50% inhibition.
